From ChEMBL document CHEMBL1132640, “Structure-based design, synthesis, and X-ray crystallography of a high-affinity antagonist of the Grb2-SH2 domain containing an asparagine mimetic” (J Med Chem, 1999)

Target: Growth factor receptor-bound protein 2 (Homo sapiens, UniProt P62993)
Assay: Inhibition of Grb2-SH2 domain binding to phospho-EGF receptor intracellular C-terminal domain
Assay type: cell-based

Sequence of Growth factor receptor-bound protein 2 (P62993 whole entry, the tested form may be a part): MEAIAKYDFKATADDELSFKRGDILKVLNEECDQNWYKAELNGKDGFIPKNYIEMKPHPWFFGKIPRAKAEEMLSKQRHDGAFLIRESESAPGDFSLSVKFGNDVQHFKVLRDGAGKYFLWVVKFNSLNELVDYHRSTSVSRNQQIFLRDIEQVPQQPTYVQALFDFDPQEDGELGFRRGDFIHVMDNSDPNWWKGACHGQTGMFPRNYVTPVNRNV

SMILES	IC50
NC(=O)[C@@H]1CCC=C[C@@H]1NC(=O)C1(NC(=O)[C@H](Cc2ccc(OP(=O)(O)O)cc2)NC(=O)OCc2cccc(N)c2)CCCCC1	> 5000 nM
NC(=O)C[C@H](NC(=O)C1(NC(=O)[C@H](Cc2ccc(OP(=O)(O)O)cc2)NC(=O)OCc2cccc(N)c2)CCCCC1)C(N)=O	1 nM
